Source: EP4647082A1, “PHARMACEUTICAL COMPOSITION COMPRISING A CGRP RECEPTOR ANTAGONIST FOR THE TREATMENT OF ACUTE MIGRAINE” (NUVIE BIO, Inc., priority 2024, dated 2025)
Like-named read-outs stand apart in the source and are kept apart here. Marks after values point to notes of the source that are not given here. Bridge positions count the residues as written; N and C are the ends. Square brackets hold non-standard residues; d marks the D form. Peptide text beside a SMILES is read from it. * marks the point of attachment. Phe(2-CONH2) = NC(=O)c1ccccc1C[C@H](N)C(=O)O; Orn(iPr) = CC(C)NCCC[C@H](N)C(=O)O; Oxazole2carbonyl = O=C(c1ncco1)*; 3Pal = N[C@@H](Cc1cccnc1)C(=O)O

Key:
[1] = Phase I first-in-human study, pharmacokinetics after single ascending subcutaneous doses in healthy volunteers; assay type: in vivo; settings: for level at 3 h: nominal time 3 h; for T10nM: time to 10 nM; for T30nM: time to 30 nM; for T100nM: time to 100 nM
Description: For Phase I clinical studies, the 32 mg/mL pharmaceutical composition was dosed subcutaneously. The Phase I clinical trial was a randomised, double-blind, placebo-controlled, first-in-human study of the safety, tolerability and pharmacokinetics of AXN-001 in healthy volunteers under Protocol No. AXN-001-01 .
The pharmacokinetic objective of the clinical trial was to provide pharmacokinetic analysis of AXN-001 following single ascending subcutaneous doses of AXN-001. The study design included the following Cohorts: • Cohort 1: Dose 1 mg (2 mg/mL formulation); • Cohort 2: Dose 2 mg (4 mg/mL formulation); • Cohort 3: Dose 4 mg (8 mg/mL formulation); • Cohort 4: Dose 8 mg (16 mg/mL formulation); • Cohort 5: Dose 16 mg (32 mg/mL formulation).
Participants were administered a single dose (0.5 mL) of AXN-001 or placebo via subcutaneous (SC) injection into the abdomen. Blood samples were collected at specified time points for pharmacokinetic analysis (5,10,15,20,30,45,60 minutes; 2,3,4,6,8,12,24 hours). Individual plasma concentrations of ANX-001 were determined and used for analyses.
Pharmacokinetic (PK) parameters of AXN-001 were determined using Phoenix WinNonlin version 8.3. All concentrations below the limit of quantification (BLQ) were set to zero for the purpose of the PK analysis. All AUC determinations were made using linear trapezoidal method. The following parameters were determined: Cmax Maximum observed concentration. as read directly from the observed data. Tmax Time to maximum concentration T10nM Time to 10 nM T30nM Time to 30 nM T100nM Time to 100 nM AUC0-t Area under the concentration-time curve from time zero to the time of the last measurable concentration, calculated using linear trapezoidal rule AUC0-inf Area under the concentration-time curve from time zero to infinity, calculated using linear trapezoidal rule %AUCextrap The portion of AUC determined by extrapolation t1/2 Apparent terminal elimination half-life CL/F or CL Total apparent body clearance Vz/F or Vz Apparent volume of distribution λz Terminal elimination rate constant

Solubility of AXN-001 = assay type: physicochemical; settings: neutral pH
[2] = human, plasma, single SC dose 16 mg, mean

**Q.** Which level at 3 h ([1]; human, plasma, single SC dose 8 mg, mean, read-out: Plasma Concentration AXN-001) does the source give for `CC(C)NCCC[C@@H]1NC(=O)[C@@H](NC(=O)[C@H](Cc2ccccc2C(N)=O)NC(=O)[C@H](NC(=O)c2ncco2)C(C)C)CSSC[C@@H](C(=O)N[C@@H](Cc2cccnc2)C(N)=O)NC(=O)[C@H](Cc2ccccc2)NC(=O)[C@@H]2CCCN2C(=O)CNC(=O)[C@H](C(C)C)NC(=O)[C@H](CC(=O)O)NC1=O` [AXN-001, Oxazole-2-carbonyl-D-Val-Phe(2-Cbm)-c(Cys-Orn (iPr)-Asp-Val-Gly-Pro-Phe-Cys)-3Pal-NH2] (Oxazole2carbonyl-[dV][Phe(2-CONH2)]C[Orn(iPr)]DVGPFC[3Pal]-NH2; disulfide 3-10) here?
**A.** Its level at 3 h is 72 ng/mL.

**Q.** And the level at 4 h ([1]; human, plasma, single SC dose 8 mg, nominal time 4 h, mean, read-out: Plasma Concentration AXN-001)?
**A.** The level at 4 h was 38.7 ng/mL.

**Q.** And the level at 6 h ([1]; human, plasma, single SC dose 8 mg, nominal time 6 h, mean, read-out: Plasma Concentration AXN-001)?
**A.** The level at 6 h was 13.9 ng/mL.

**Q.** And the level at 8 h ([1]; human, plasma, single SC dose 8 mg, nominal time 8 h, mean, read-out: Plasma Concentration AXN-001)?
**A.** The level at 8 h was 5.8 ng/mL.

**Q.** What about the level at 12 h ([1]; human, plasma, single SC dose 8 mg, nominal time 12 h, mean, read-out: Plasma Concentration AXN-001) of the same molecule?
**A.** The level at 12 h was 0.38 ng/mL.

**Q.** And the AUC(0-inf) [1, 2]?
**A.** Its AUC(0-inf) is 1250 ng·h/mL.

**Q.** And the AUC(0-t) [1, 2]?
**A.** The AUC(0-t) was 1230 ng·h/mL.

**Q.** And the CL/F [1, 2]?
**A.** The CL/F was 222 mL/min.

**Q.** What about the Cmax [1, 2] of the same molecule?
**A.** Its Cmax is 381 ng/mL.

**Q.** What about the Tmax [1, 2] of the same molecule?
**A.** The Tmax was 0.958 h.

**Q.** What about the half-life [1, 2] of the same molecule?
**A.** Its half-life is 2.8 h.

**Q.** And the level at 0.08 h ([1]; human, plasma, single SC dose 16 mg, nominal time 0.08 h, mean, read-out: Plasma Concentration AXN-001)?
**A.** Its level at 0.08 h is 27.4 ng/mL.

**Q.** What about the level at 0.17 h ([1]; human, plasma, single SC dose 16 mg, nominal time 0.17 h, mean, read-out: Plasma Concentration AXN-001) of the same molecule?
**A.** The level at 0.17 h was 83.4 ng/mL.

**Q.** What about the level at 0.25 h ([1]; human, plasma, single SC dose 16 mg, nominal time 0.25 h, mean, read-out: Plasma Concentration AXN-001) of the same molecule?
**A.** Its level at 0.25 h is 139 ng/mL.

**Q.** What about the level at 0.33 h ([1]; human, plasma, single SC dose 16 mg, nominal time 0.33 h, mean, read-out: Plasma Concentration AXN-001) of the same molecule?
**A.** The level at 0.33 h was 183 ng/mL.

**Q.** And the level at 0.5 h ([1]; human, plasma, single SC dose 16 mg, nominal time 0.50 h, mean, read-out: Plasma Concentration AXN-001)?
**A.** The level at 0.5 h was 294 ng/mL.

**Q.** And the level at 0.75 h ([1]; human, plasma, single SC dose 16 mg, nominal time 0.75 h, mean, read-out: Plasma Concentration AXN-001)?
**A.** Its level at 0.75 h is 355 ng/mL.

**Q.** And the level at 1 h ([1]; human, plasma, single SC dose 16 mg, nominal time 1 h, mean, read-out: Plasma Concentration AXN-001)?
**A.** Its level at 1 h is 380 ng/mL.

**Q.** And the level at 2 h ([1]; human, plasma, single SC dose 16 mg, nominal time 2 h, mean, read-out: Plasma Concentration AXN-001)?
**A.** The level at 2 h was 277 ng/mL.

**Q.** And the level at 3 h ([1]; human, plasma, single SC dose 16 mg, mean, read-out: Plasma Concentration AXN-001)?
**A.** Its level at 3 h is 170 ng/mL.

**Q.** What about the level at 4 h ([1]; human, plasma, single SC dose 16 mg, nominal time 4 h, mean, read-out: Plasma Concentration AXN-001) of the same molecule?
**A.** Its level at 4 h is 96.8 ng/mL.

**Q.** And the level at 6 h ([1]; human, plasma, single SC dose 16 mg, nominal time 6 h, mean, read-out: Plasma Concentration AXN-001)?
**A.** Its level at 6 h is 44 ng/mL.

**Q.** And the level at 8 h ([1]; human, plasma, single SC dose 16 mg, nominal time 8 h, mean, read-out: Plasma Concentration AXN-001)?
**A.** Its level at 8 h is 23.7 ng/mL.

**Q.** What about the level at 12 h ([1]; human, plasma, single SC dose 16 mg, nominal time 12 h, mean, read-out: Plasma Concentration AXN-001) of the same molecule?
**A.** The level at 12 h was 9.2 ng/mL.

**Q.** And the “%AUCextrap” value ([1]; single SC dose 1 mg, mean)?
**A.** Its value is 5.37%.

**Q.** What about the Vz/F ([1]; single SC dose 1 mg, mean) of the same molecule?
**A.** Its Vz/F is 19.1 L.

**Q.** What about the λz ([1]; single SC dose 1 mg, mean) of the same molecule?
**A.** The λz was 0.535 h⁻¹.

**Q.** And the “Plasma Concentration AXN-001” value ([1]; single SC dose 1 mg, nominal time 0.08 h, mean)?
**A.** Its value is 4.96 ng/mL.

**Q.** What about the “Plasma Concentration AXN-001” value ([1]; single SC dose 1 mg, nominal time 0.17 h, mean) of the same molecule?
**A.** The value was 12.8 ng/mL.

**Q.** What about the “Plasma Concentration AXN-001” value ([1]; single SC dose 1 mg, nominal time 0.25 h, mean) of the same molecule?
**A.** The value was 17.9 ng/mL.

**Q.** What about the “Plasma Concentration AXN-001” value ([1]; single SC dose 1 mg, nominal time 0.33 h, mean) of the same molecule?
**A.** The value was 28.5 ng/mL.

**Q.** And the “Plasma Concentration AXN-001” value ([1]; single SC dose 1 mg, nominal time 0.50 h, mean)?
**A.** The value was 34.8 ng/mL.

**Q.** And the “Plasma Concentration AXN-001” value ([1]; single SC dose 1 mg, nominal time 0.75 h, mean)?
**A.** The value was 39.3 ng/mL.

**Q.** And the “Plasma Concentration AXN-001” value ([1]; single SC dose 1 mg, nominal time 4 h, mean)?
**A.** Its value is 7.47 ng/mL.

**Q.** What about the “Plasma Concentration AXN-001” value ([1]; single SC dose 1 mg, nominal time 6 h, mean) of the same molecule?
**A.** Its value is 2.8 ng/mL.

**Q.** What about the “Plasma Concentration AXN-001” value ([1]; single SC dose 1 mg, nominal time 8 h, mean) of the same molecule?
**A.** The value was 0 ng/mL.

**Q.** What about the “Plasma Concentration AXN-001” value ([1]; single SC dose 1 mg, nominal time 12 h, mean) of the same molecule?
**A.** The value was 0 ng/mL.

**Q.** What about the T10nM ([1]; single SC dose 1 mg) of the same molecule?
**A.** The T10nM was 12 min.

**Q.** What about the T30nM ([1]; single SC dose 1 mg, marked *, 1 of 6 subjects reached 30nM) of the same molecule?
**A.** The T30nM was 19* min.

**Q.** What about the “%AUCextrap” value ([1]; single SC dose 2 mg, mean) of the same molecule?
**A.** Its value is 4.98%.

**Q.** What about the Vz/F ([1]; single SC dose 2 mg, mean) of the same molecule?
**A.** Its Vz/F is 24.6 L.

**Q.** What about the λz ([1]; single SC dose 2 mg, mean) of the same molecule?
**A.** Its λz is 0.528 h⁻¹.

**Q.** And the “Plasma Concentration AXN-001” value ([1]; single SC dose 2 mg, nominal time 12 h, mean)?
**A.** Its value is 0 ng/mL.

**Q.** And the T10nM ([1]; single SC dose 2 mg)?
**A.** The T10nM was 9 min.

**Q.** And the T30nM ([1]; single SC dose 2 mg, marked *, 5 of 6 subjects reached 30nM)?
**A.** The T30nM was 21* min.

**Q.** And the “%AUCextrap” value ([1]; single SC dose 4 mg, mean)?
**A.** The value was 1.82%.

**Q.** What about the Vz/F ([1]; single SC dose 4 mg, mean) of the same molecule?
**A.** The Vz/F was 23.3 L.

**Q.** What about the λz ([1]; single SC dose 4 mg, mean) of the same molecule?
**A.** Its λz is 0.517 h⁻¹.

**Q.** What about the T10nM ([1]; single SC dose 4 mg) of the same molecule?
**A.** Its T10nM is 6 min.

**Q.** What about the T30nM ([1]; single SC dose 4 mg) of the same molecule?
**A.** The T30nM was 11 min.

**Q.** And the T100nM ([1]; single SC dose 4 mg, marked *, 2/5 of cohort reached 100nM)?
**A.** Its T100nM is 25* min.

**Q.** And the “%AUCextrap” value ([1]; single SC dose 8 mg, mean)?
**A.** Its value is 1.58%.

**Q.** And the Vz/F ([1]; single SC dose 8 mg, mean)?
**A.** The Vz/F was 28.7 L.

**Q.** What about the λz ([1]; single SC dose 8 mg, mean) of the same molecule?
**A.** Its λz is 0.481 h⁻¹.

**Q.** And the T10nM ([1]; single SC dose 8 mg)?
**A.** The T10nM was 3 min.

**Q.** What about the T30nM ([1]; single SC dose 8 mg) of the same molecule?
**A.** The T30nM was 7 min.

**Q.** And the T100nM ([1]; single SC dose 8 mg)?
**A.** The T100nM was 21 min.

**Q.** What about the “%AUCextrap” value ([1]; single SC dose 16 mg, mean) of the same molecule?
**A.** Its value is 1.51%.

**Q.** And the Vz/F ([1]; single SC dose 16 mg, mean)?
**A.** The Vz/F was 55.3 L.

**Q.** What about the λz ([1]; single SC dose 16 mg, mean) of the same molecule?
**A.** Its λz is 0.292 h⁻¹.

**Q.** And the T10nM ([1]; single SC dose 16 mg)?
**A.** Its T10nM is 3 min.

**Q.** What about the T30nM ([1]; single SC dose 16 mg) of the same molecule?
**A.** Its T30nM is 7 min.

**Q.** What about the T100nM ([1]; single SC dose 16 mg) of the same molecule?
**A.** The T100nM was 17 min.

**Q.** What about the “free plasma concentration (Figure 5)” value ([1]; within 30 minutes, compared with olcegepant, zavegepant, rimegepant and ubrogepant, consistent up to 120 minutes) of the same molecule?
**A.** Its value is “much higher increase in free plasma concentration”.

**Q.** And the solubility (Solubility of AXN-001)?
**A.** The solubility was “low”.
